The source made the active and inactive calls. No cut-off for these calls is given here.
How the values were obtained:
[1] = Metabolic stability in mouse liver microsomes assessed as intrinsic clearance measured up to 120 mins by LC-MS/MS analysis; format: ADME, Microsome; settings: read-out: CLH
[2] = biological target: T1, Protein cereblon/Non-receptor tyrosine-protein kinase TYK2 (Homo sapiens, UniProt P29597+Q96SW2); test: PROTAC activity at CRBN/TYK2 in human Jurkat cells assessed as induction of degradation of TYK2 at 1 nM measured after 10 hrs by Western blot analysis relative to control; format: cell-based
Target sequence in this assay (P29597 whole entry, looked up): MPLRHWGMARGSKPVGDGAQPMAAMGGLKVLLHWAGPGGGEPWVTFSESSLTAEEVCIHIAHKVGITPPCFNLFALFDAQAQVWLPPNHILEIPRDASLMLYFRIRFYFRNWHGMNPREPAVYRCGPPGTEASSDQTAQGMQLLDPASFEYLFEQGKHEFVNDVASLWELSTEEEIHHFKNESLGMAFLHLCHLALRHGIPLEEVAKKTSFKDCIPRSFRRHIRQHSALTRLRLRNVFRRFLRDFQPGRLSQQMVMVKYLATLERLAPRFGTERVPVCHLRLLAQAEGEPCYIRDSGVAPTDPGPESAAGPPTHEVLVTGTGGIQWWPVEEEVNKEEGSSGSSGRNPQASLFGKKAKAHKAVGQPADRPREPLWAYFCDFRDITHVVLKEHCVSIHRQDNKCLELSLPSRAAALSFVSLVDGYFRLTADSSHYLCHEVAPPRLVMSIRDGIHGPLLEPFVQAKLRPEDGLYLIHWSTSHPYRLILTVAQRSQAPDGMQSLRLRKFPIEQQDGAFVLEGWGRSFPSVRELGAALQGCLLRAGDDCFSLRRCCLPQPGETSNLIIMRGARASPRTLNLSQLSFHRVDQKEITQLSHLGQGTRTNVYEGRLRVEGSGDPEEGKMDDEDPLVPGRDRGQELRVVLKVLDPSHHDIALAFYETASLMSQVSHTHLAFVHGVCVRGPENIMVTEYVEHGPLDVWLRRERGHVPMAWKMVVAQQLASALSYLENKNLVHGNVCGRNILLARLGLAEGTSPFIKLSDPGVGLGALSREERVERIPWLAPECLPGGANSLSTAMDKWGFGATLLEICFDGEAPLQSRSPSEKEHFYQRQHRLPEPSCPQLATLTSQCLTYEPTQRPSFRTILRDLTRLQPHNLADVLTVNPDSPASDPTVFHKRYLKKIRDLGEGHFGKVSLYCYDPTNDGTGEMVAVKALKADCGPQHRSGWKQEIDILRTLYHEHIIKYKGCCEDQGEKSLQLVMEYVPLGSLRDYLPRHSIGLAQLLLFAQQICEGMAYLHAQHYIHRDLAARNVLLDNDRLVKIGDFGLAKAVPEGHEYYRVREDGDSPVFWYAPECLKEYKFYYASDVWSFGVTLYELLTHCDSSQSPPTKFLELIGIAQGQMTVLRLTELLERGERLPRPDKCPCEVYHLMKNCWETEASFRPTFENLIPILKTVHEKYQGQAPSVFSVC
Target sequence in this assay (Q96SW2 whole entry, looked up): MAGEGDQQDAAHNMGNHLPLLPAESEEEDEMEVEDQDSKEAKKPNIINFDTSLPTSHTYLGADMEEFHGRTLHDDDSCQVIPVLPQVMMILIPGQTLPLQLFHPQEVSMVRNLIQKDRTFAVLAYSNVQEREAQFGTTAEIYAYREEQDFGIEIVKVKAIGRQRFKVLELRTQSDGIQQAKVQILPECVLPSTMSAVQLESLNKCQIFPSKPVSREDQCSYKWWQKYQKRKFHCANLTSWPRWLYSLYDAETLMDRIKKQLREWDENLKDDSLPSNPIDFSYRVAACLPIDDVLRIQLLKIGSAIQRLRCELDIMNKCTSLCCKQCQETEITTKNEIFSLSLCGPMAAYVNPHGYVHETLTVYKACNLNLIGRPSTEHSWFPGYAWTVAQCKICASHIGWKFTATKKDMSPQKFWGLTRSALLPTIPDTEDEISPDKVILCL

[3] = biological target: T1, Protein cereblon/Non-receptor tyrosine-protein kinase TYK2; test: PROTAC activity at CRBN/TYK2 in human Jurkat cells assessed as induction of degradation of TYK2 at 100 nM measured after 10 hrs by Western blot analysis relative to control; format: cell-based
Target sequence in this assay (P29597 whole entry, looked up): as the sequence (P29597 whole entry, looked up) above
Target sequence in this assay (Q96SW2 whole entry, looked up): as the sequence (Q96SW2 whole entry, looked up) above

[4] = biological target: T1, Protein cereblon/Non-receptor tyrosine-protein kinase TYK2; test: PROTAC activity at CRBN/TYK2 in human Jurkat cells assessed as induction of degradation of TYK2 at 10 nM measured after 10 hrs by Western blot analysis relative to control; format: cell-based
Target sequence in this assay (P29597 whole entry, looked up): as the sequence (P29597 whole entry, looked up) above
Target sequence in this assay (Q96SW2 whole entry, looked up): as the sequence (Q96SW2 whole entry, looked up) above

[5] = Metabolic stability in mouse liver microsomes assessed as half life measured up to 120 mins by LC-MS/MS analysis; format: ADME, Microsome
[6] = biological target: T1, Protein cereblon/Non-receptor tyrosine-protein kinase TYK2; test: PROTAC activity at CRBN/TYK2 in human HaCaT cells assessed as induction of degradation of TYK2 measured after 10 hrs by Western blot analysis; format: cell-based; settings: dose 1-100 nM, tested as the 2H-labelled form
Target sequence in this assay (P29597 whole entry, looked up): as the sequence (P29597 whole entry, looked up) above
Target sequence in this assay (Q96SW2 whole entry, looked up): as the sequence (Q96SW2 whole entry, looked up) above

[7] = Tmax in male ICR mouse at 1 mg/kg, iv measured up to 24 hrs by LC-MS/MS analysis; format: ADME, organism-based; settings: in vivo
[8] = AUC (0 to infinity) in male ICR mouse at 1 mg/kg, iv measured up to 24 hrs by LC-MS/MS analysis; format: ADME, organism-based; settings: in vivo
[9] = Apparent permeability of the compound in human Caco-2 cells at 10 uM measured up to 120 min by LC-MS/MS analysis; format: ADME, cell-based
[10] = AUC (0 to t) in male ICR mouse at 1 mg/kg, iv measured up to 24 hrs by LC-MS/MS analysis; format: ADME, organism-based; settings: in vivo
[11] = Half life in male ICR mouse at 10 mg/kg, po measured up to 24 hrs by LC-MS/MS analysis; format: ADME, organism-based; settings: in vivo
[12] = AUC (0 to t) in male ICR mouse at 10 mg/kg, po measured up to 24 hrs by LC-MS/MS analysis; format: ADME, organism-based; settings: in vivo
[13] = Cmax in male ICR mouse at 10 mg/kg, po measured up to 24 hrs by LC-MS/MS analysis; format: ADME, organism-based; settings: in vivo
[14] = Half life in male ICR mouse at 1 mg/kg, iv measured up to 24 hrs by LC-MS/MS analysis; format: ADME, organism-based; settings: in vivo
[15] = Cmax in male ICR mouse at 1 mg/kg, iv measured up to 24 hrs by LC-MS/MS analysis; format: ADME, organism-based; settings: in vivo
[16] = AUC (0 to infinity) in male ICR mouse at 10 mg/kg, po measured up to 24 hrs by LC-MS/MS analysis; format: ADME, organism-based; settings: in vivo
[17] = Tmax in male ICR mouse at 10 mg/kg, po measured up to 24 hrs by LC-MS/MS analysis; format: ADME, organism-based; settings: in vivo
[18] = Oral bioavailability in male ICR mouse at 10 mg/kg measured up to 24 hrs by LC-MS/MS analysis; format: ADME, organism-based; settings: in vivo
[19] = Inhibition of TYK2 dependent STAT3 phosphorylation in IL-6 stimulated human PBMC cells preincubated for 60 mins followed by IL-6 stimulation and measured after 60 mins by FACS assay; format: cell-based
[20] = Inhibition of TYK2 dependent STAT3 phosphorylation in IL-12 stimulated human PBMC cells preincubated for 60 mins followed by IL-12 stimulation and measured after 60 mins by FACS assay; format: cell-based
[21] = biological target: T1, Protein cereblon/Non-receptor tyrosine-protein kinase TYK2; test: PROTAC activity at CRBN/TYK2 in human Jurkat cells assessed as induction of degradation of TYK2 at 100 ug/ml measured after 10 hrs by Western blot analysis; format: cell-based; settings: dose 100.0 µg/ml
Target sequence in this assay (P29597 whole entry, looked up): as the sequence (P29597 whole entry, looked up) above
Target sequence in this assay (Q96SW2 whole entry, looked up): as the sequence (Q96SW2 whole entry, looked up) above

[22] = biological target: T1, Protein cereblon/Non-receptor tyrosine-protein kinase TYK2; test: PROTAC activity at CRBN/TYK2 in human Jurkat cells assessed as induction of degradation of TYK2 measured after 10 hrs by Western blot analysis; format: cell-based
Target sequence in this assay (P29597 whole entry): as the sequence (P29597 whole entry, looked up) above
Target sequence in this assay (Q96SW2 whole entry): as the sequence (Q96SW2 whole entry, looked up) above

SMILES	Activity [2]	Activity [3]	Activity [4] [%]	other results
CNC(=O)c1cnc(Nc2ccc(C(=O)N3CC4(C3)CN(c3ccc5c(c3)C(=O)N(C3CCC(=O)NC3=O)C5=O)C4)cn2)cc1Nc1cccc(-c2ncc(F)cn2)c1OC (centres undefined)	46%	68%	83	CLint scaled [1]: 53 mL/min/kg; half-life [5]: 104 min
CNC(=O)c1cnc(Nc2ccc(C(=O)NCCOCCNc3cccc4c3C(=O)N(C3CCC(=O)NC3=O)C4=O)cn2)cc1Nc1cccc(-c2ncc(F)cn2)c1OC (centres undefined)		66%	32	
CNC(=O)c1nnc(NC(=O)C2CC2)cc1Nc1cccc(-c2ncn(C)n2)c1OC				Activity ([3]; tested as the 2H-labelled form): inactive; Activity ([4]; tested as the 2H-labelled form): inactive; Activity [6]: inactive
CNC(=O)c1cnc(Nc2ccc(C(=O)NCCNc3cccc4c3C(=O)N(C3CCC(=O)NC3=O)C4=O)cn2)cc1Nc1cccc(-c2ncc(F)cn2)c1OC (centres undefined)		15%	12	
CNC(=O)c1cnc(Nc2ccc(C(=O)NCCCNc3cccc4c3C(=O)N(C3CCC(=O)NC3=O)C4=O)cn2)cc1Nc1cccc(-c2ncc(F)cn2)c1OC (centres undefined)		21%	18	
CNC(=O)c1cnc(Nc2ccc(C(=O)N(C)C3CCN(c4ccc5c(c4)C(=O)N(C4CCC(=O)NC4=O)C5=O)CC3)cn2)cc1Nc1cccc(-c2ncc(F)cn2)c1OC (centres undefined)				Tmax [7]: 4.8 min; AUC(0-inf) [8]: 717 ng·h/mL; Papp at 2 h, 10 µM [9]: 0.26 ×10⁻⁶ cm/s; AUC(0-t) at 24 h [10]: 712 ng·h/mL; half-life [11]: 72 min; AUC(0-t) at 24 h [12]: 159 ng·h/mL; Cmax [13]: 124 ng/mL; half-life [14]: 39.6 min; Cmax [15]: 1490 ng/mL; AUC(0-inf) [16]: 163 ng·h/mL; Tmax [17]: 18 min; bioavailability [18]: 2.2%; half-life [5]: 41 min
CNC(=O)c1cnc(Nc2ccc(C(=O)N3CC4(CCN(c5ccc6c(c5)C(=O)N(C5CCC(=O)NC5=O)C6=O)CC4)C3)cn2)cc1Nc1cccc(-c2ncc(F)cn2)c1OC (centres undefined)	42%	61%	69	
CNC(=O)c1cnc(Nc2ccc(C(=O)N3CC4(CC(Nc5ccc6c(c5)C(=O)N(C5CCC(=O)NC5=O)C6=O)C4)C3)cn2)cc1Nc1cccc(-c2ncc(F)cn2)c1OC (centres undefined)	17%	48%	62	
[2H]C([2H])([2H])NC(=O)c1nnc(NC(=O)C2CC2)cc1Nc1cccc(-c2ncn(C)n2)c1OC [DEUCRAVACITINIB]				IC50 [19]: 405 nM; IC50 [20]: 7.4 nM
CNC(=O)c1cnc(Nc2ccc(C(=O)NCCCCNc3ccc4c(c3)C(=O)N(C3CCC(=O)NC3=O)C4=O)cn2)cc1Nc1cccc(-c2ncc(F)cn2)c1OC (centres undefined)		48%	42	
CNC(=O)c1cnc(Nc2ccc(C(=O)N3CC(N4CCN(c5ccc6c(c5)C(=O)N(C5CCC(=O)NC5=O)C6=O)CC4)C3)cn2)cc1Nc1cccc(-c2ncc(F)cn2)c1OC (centres undefined)	44%	67%	77	
CNC(=O)c1cnc(Nc2ccc(C(=O)N3CCC4(CC3)CCN(c3ccc5c(c3)C(=O)N(C3CCC(=O)NC3=O)C5=O)CC4)cn2)cc1Nc1cccc(-c2ncc(F)cn2)c1OC (centres undefined)	inactive	13%	65	
CNC(=O)c1cnc(Nc2ccc(C(=O)N3CCC(CNc4ccc5c(c4)C(=O)N(C4CCC(=O)NC4=O)C5=O)CC3)cn2)cc1Nc1cccc(-c2ncc(F)cn2)c1OC (centres undefined)	7%	10%	35	
CNC(=O)c1cnc(Nc2ccc(C(=O)N3CCN(C4CCN(c5ccc6c(c5)C(=O)N(C5CCC(=O)NC5=O)C6=O)CC4)CC3)cn2)cc1Nc1cccc(-c2ncc(F)cn2)c1OC (centres undefined)	inactive	7%	17	
CNC(=O)c1cnc(Nc2ccc(C(=O)N3CCC(CN4CCN(c5ccc6c(c5)C(=O)N(C5CCC(=O)NC5=O)C6=O)CC4)CC3)cn2)cc1Nc1cccc(-c2ncc(F)cn2)c1OC (centres undefined)	2%	inactive	78	
C[C@@H]1C[C@@H]([C@H](O)CC2CC(=O)NC(=O)C2)C(=O)[C@@H](C)C1				Activity [21]: Active
CNC(=O)c1cnc(Nc2ccc(C(=O)NCCCCCNc3cccc4c3C(=O)N(C3CCC(=O)NC3=O)C4=O)cn2)cc1Nc1cccc(-c2ncc(F)cn2)c1OC (centres undefined)		94%	86	DC50 [22]: 0.43 nM
CNC(=O)c1cnc(NC2CCN(CC3CCN(c4ccc5c(c4)C(=O)N(C4CCC(=O)NC4=O)C5=O)CC3)CC2)cc1Nc1cccc(-c2ncc(F)cn2)c1OC (centres undefined)				Papp at 2 h, 10 µM [9]: < 0.1 ×10⁻⁶ cm/s; half-life [5]: 62 min
CNC(=O)c1cnc(Nc2ccc(C(=O)NCCOCCOCCNc3cccc4c3C(=O)N(C3CCC(=O)NC3=O)C4=O)cn2)cc1Nc1cccc(-c2ncc(F)cn2)c1OC (centres undefined)		56%	5	
CNC(=O)c1cnc(Nc2ccc(C(=O)NCCCCCCNc3ccc4c(c3)C(=O)N(C3CCC(=O)NC3=O)C4=O)cn2)cc1Nc1cccc(-c2ncc(F)cn2)c1OC (centres undefined)		62%	46	
CNC(=O)c1cnc(Nc2ccc(C(=O)NCCCCCCCCNc3cccc4c3C(=O)N(C3CCC(=O)NC3=O)C4=O)cn2)cc1Nc1cccc(-c2ncc(F)cn2)c1OC (centres undefined)		74%	72	
CNC(=O)c1cnc(Nc2ccc(C(=O)NCCCCCCNc3cccc4c3C(=O)N(C3CCC(=O)NC3=O)C4=O)cn2)cc1Nc1cccc(-c2ncc(F)cn2)c1OC (centres undefined)		69%	48	
CNC(=O)c1cnc(Nc2ccc(C(=O)NCCCCNc3cccc4c3C(=O)N(C3CCC(=O)NC3=O)C4=O)cn2)cc1Nc1cccc(-c2ncc(F)cn2)c1OC (centres undefined)		82%	26	CLint scaled [1]: 228 mL/min/kg; half-life [5]: 24 min
CNC(=O)c1cnc(Nc2ccc(C(=O)NCCCCCNc3ccc4c(c3)C(=O)N(C3CCC(=O)NC3=O)C4=O)cn2)cc1Nc1cccc(-c2ncc(F)cn2)c1OC (centres undefined)		65%	88	CLint scaled [1]: 365 mL/min/kg; half-life [5]: 15 min

Source: ChEMBL document CHEMBL6109122 (J Med Chem, 2025)
